# According to ChEMBL document CHEMBL1135270, “New highly active taxoids from 9 beta-dihydrobaccatin-9,10-acetals” (2002):
# Legend:
# [1] = tested on: PC-6; assay: Growth inhibition of 50% of vincristine-resistant cell line expressing P-glycoprotein (PC-6/VCR) in MTT assay; assay type: functional; details: Homo sapiens
# [2] = tested on: PC-6; assay: Growth inhibition of 50% of human small cell lung cancer (PC-6) cell line in MTT assay; assay type: functional
SMILES,GI50 [1] [ng/mL],GI50 [2] [ng/mL]
CC(=O)O[C@@]12CO[C@@H]1C[C@H](O)[C@@]1(C)[C@H](O)[C@H](O)C3=C(C)[C@@H](OC(=O)[C@H](O)[C@@H](NC(=O)OC(C)(C)C)c4ccco4)C[C@@](O)([C@@H](OC(=O)c4ccccc4)[C@H]21)C3(C)C,422,21
CC(=O)O[C@@]12CO[C@@H]1C[C@H](O)[C@@]1(C)[C@@H]3OC(C)(C)O[C@@H]3C3=C(C)[C@@H](OC(=O)[C@H](O)[C@@H](NC(=O)OC(C)(C)C)c4ccco4)C[C@@](O)([C@@H](OC(=O)c4ccccc4)[C@H]21)C3(C)C,1.88,0.331
C=CC1O[C@@H]2C3=C(C)[C@@H](OC(=O)[C@H](O)[C@@H](NC(=O)OC(C)(C)C)c4ccccc4)C[C@@](O)([C@@H](OC(=O)c4ccccc4)[C@@H]4[C@]5(OC(C)=O)CO[C@@H]5C[C@H](O)[C@@]4(C)[C@@H]2O1)C3(C)C (stereo not given in full),4.64,0.365
C=CC1O[C@@H]2C3=C(C)[C@@H](OC(=O)[C@H](O)[C@@H](NC(=O)OC(C)(C)C)c4ccco4)C[C@@](O)([C@@H](OC(=O)c4ccccc4)[C@@H]4[C@]5(OC(C)=O)CO[C@@H]5C[C@H](O)[C@@]4(C)[C@@H]2O1)C3(C)C (stereo not given in full),1.27,0.743
COc1ccc(C2O[C@@H]3C4=C(C)[C@@H](OC(=O)[C@H](O)[C@@H](NC(=O)OC(C)(C)C)c5ccco5)C[C@@](O)([C@@H](OC(=O)c5ccccc5)[C@@H]5[C@]6(OC(C)=O)CO[C@@H]6C[C@H](O)[C@@]5(C)[C@@H]3O2)C4(C)C)cc1 (stereo not given in full),9.25,6.26
